These results are taken from patent publication US20220233708A1, “ANTIBODY-DRUG CONJUGATE, INTERMEDIATE THEREOF, PREPARATION METHOD THEREFOR AND APPLICATION THEREOF” (priority 2019, published 2022).

Usually IC50 stands for the midpoint of a concentration-inhibition curve.

The subject of one data set is anti-B7-H3 antibody P2E5. Nature of the data set: Coupling of linker-drug conjugates with P2E5. It is filed as physicochemical. To be noted: coupling with P2E5, highest DAR (excessive coupling). As for the experimental part: (§1) The anti-B7-H3 antibody P2E5, anti-Claudin18.2 antibody IMAB362, and anti-HER2 antibody Trastuzumab (concentration was 15 mg/mL) were replaced into 50 mM PB/1.0 mM EDTA buffer (pH 7.0) by a G25 desalting column, respectively. 12 equivalents of TECP was added and the mixture was stirred at 37° C. for 2 hours to fully open the disulfide bonds between the antibody chains. Then phosphoric acid was used to adjust the pH of the reduced antibody solution to 6.0, and the temperature of the water bath was lowered to 25° C. for coupling reaction. […] After the reaction was completed, the sample was filtered with a 0.22 μm membrane. Uncoupled small molecules were purified and removed by a tangential flow ultrafiltration system. The buffer was 50 mM PB/1.0 mM EDTA solution (pH 6.0). After purification, sucrose (final concentration was 6%) was added, and the mixture was stored in a refrigerator at −20° C. The UV method was used to measure the absorbance values at 280 nm and 370 nm respectively, and the DAR value was calculated.

The test system of data set [1] is anti-Claudin18.2 antibody IMAB362. The experiment in a line: Coupling of linker-drug conjugates with IMAB362. Format: physicochemical. To be noted: coupling with IMAB362, highest DAR (excessive coupling). Here is the method:
as §1

In data set [2] the test system is anti-HER2 antibody Trastuzumab. The experiment in a line: Coupling of linker-drug conjugates with Trastuzumab. Format: physicochemical. The following applies: highest DAR (excessive coupling). As for the experimental part: as §1
Another data set deals with other antibodies. Nature of the data set: Coupling of linker-drug conjugates with other / different antibodies. Format: physicochemical. To be noted: coupled with other / different antibodies.
For another data set, the target named is cathepsin B (Homo sapiens, UniProt P07858). The experiment in a line: In vitro enzyme cleavage experiment of linker-drug conjugates. It is filed as in vitro ADME. To be noted: pH 5.0 to pH 7.0. As for the experimental part:
Linker-drug conjugates (LE14 and GGFG-Dxd) and cathepsin B were incubated in three different pH (5.0, 6.0, 7.0) buffers, and samples were taken at different time points into the high performance liquid chromatography-mass spectrometer. The release percentage of the drug was determined by external standard method (with Dxd as the external standard).

Another data set deals with NCI-N87 cell line. The experiment in a line: Killing activity on NCI-N87 before and after enzyme cleavage by cathepsin B system. It is filed as cell-based, human. The following applies: NCI-N87, 144 hours. The source says:
The NCI-N87 cell line was selected as the experimental cell line.

Read-outs that look alike come from different tables or passages of the source. Starred links: 1 amine or outer side, 2 acyl side, 3 side chain; linkers in the order of their positions; H or OH if unused. Non-standard residues stand in square brackets, D forms with d. Residues, ends and D or L forms follow the SMILES beside them. *: point of attachment. Exatecan = CC[C@@]1(O)C(=O)OCc2c1cc1n(c2=O)Cc2c-1nc1cc(F)c(C)c3c1c2[C@@H](N*)CC3; Hexanoyl(6-maleimido) = O=C1C=CC(=O)N1CCCCCC(=O)*; NHCH2OCH2CO = O=C(COCN[*:1])[*:2]

For `CC[C@@]1(O)C(=O)OCc2c1cc1n(c2=O)Cc2c-1nc1cc(F)c(C)c3c1c2[C@@H](NC(=O)COCNC(=O)CNC(=O)[C@H](Cc1ccccc1)NC(=O)CNC(=O)CNC(=O)CCCCCN1C(=O)C=CC1=O)CC3` [GGFG-Dxd, reference compound] ({Hexanoyl(6-maleimido)}-GGFG[NHCH2OCH2CO]-Exatecan), in the data set with anti-B7-H3 antibody P2E5, the Ratio of aggregates turned out to be 20% and the Whether precipitation result is “produced precipitation”. In data set [1], the Ratio of aggregates was 35% and the Whether precipitation entry is reported as “produced precipitation”. Besides, in data set [2], the Ratio of aggregates was found to be 0.1%; the Whether precipitation entry was “did not produce precipitation and No”. For the same molecule, in the data set on other antibodies, the “Precipitation (in words)” value was “precipitation would be produced” and the “Ratio of aggregates (in words)” value is recorded as “high”. Moreover, at cathepsin B, the “Enzyme cleavage speed (in words)” value is on record as “slower enzyme cleavage speed”.

`CC[C@@]1(O)C(=O)OC(=O)C2=C1C=C1c3nc4cc(F)c(C)c5c4c(c3CN1C2)[C@@H](NC(=O)COCN(CCS(C)(=O)=O)C(=O)OCc1ccc(NC(=O)[C@H](C)NC(=O)[C@@H](NC(=O)CCCCCN2C(=O)C=CC2=O)C(C)C)cc1)CC5` [LE14]: the values for the Ratio of aggregates (in the data set with anti-B7-H3 antibody P2E5; in data set [1]; in data set [2]) were 1.3%, 2.5% and 0.3%, respectively. In addition, the Whether precipitation result (in the data set on anti-B7-H3 antibody P2E5; in data set [1]; in data set [2]) was “No” throughout. Moreover, the “Enzyme cleavage speed (in words)” value on cathepsin B is listed as “could quickly cleave”.

As for `CC[C@@]1(O)C(=O)OCc2c1cc1n(c2=O)Cc2c-1nc1cc(F)c(C)c3c1c2[C@@H](NC(=O)COCNC(=O)CNC(=O)[C@H](Cc1ccccc1)NC(=O)[C@H](CS)NC(=O)[C@@H](NC(=O)CCCCCN1C(=O)C=CC1=O)C(C)C)CC3` [LE24] ({Hexanoyl(6-maleimido)}-VCFG[NHCH2OCH2CO]-Exatecan), the values for the Ratio of aggregates (in the data set on anti-B7-H3 antibody P2E5; in data set [1]; in data set [2]) were 1.2%, 2.0% and 0.1%, respectively. In addition, the Whether precipitation entry (in the data set with anti-B7-H3 antibody P2E5; in data set [1]; in data set [2]) was “No” each time.

With `CCc1c2c(nc3ccc(O)cc13)-c1cc3c(c(=O)n1C2)COC(=O)[C@]3(O)CC` [SN38, 7-ethyl-10-hydroxycamptothecin], the IC50 in the data set with NCI-N87 cell line (after cathepsin B system pH 5.0, 37° C., 4 hours, read-out: IC50 (Based on SN-38 equivalent), After enzyme cleavage) came to 6.85 nM; with NCI-N87 cell line (before cathepsin B cleavage, read-out: IC50 (Based on SN-38 equivalent), Before enzyme cleavage), 6.47 nM.
